Source: ChEMBL document CHEMBL5532652, “Design and synthesis of pterostilbene derivatives bearing triazole moiety that might treat DSS-induced colitis in mice through modulation of NF-κB/MAPK signaling pathways” (Eur J Med Chem, 2024)

What was measured:
RAW264.7 [1] = test: Cytotoxicity against mouse RAW264.7 cells assessed as reduction in cell viability at 20 uM incubated for 24 hrs by MTT assay; assay type: toxicity, cell-based; settings: raw264.7, 24 h
RAW264.7 [2] = test: Anti-inflammatory activity in mouse RAW264.7 cells assessed as inhibition of LPS-induced NO production incubated pretreated with compound for 1 hr followed by LPS-induction and measured after 24 hrs by Griess reagent based assay; assay type: functional, cell-based
[3] = Cytotoxicity against mouse RAW264.7 cells assessed as reduction in cell viability at 20 uM incubated for 24 hrs in absence of LPS by MTT assay; assay type: toxicity, cell-based
RAW264.7 [4] = test: Anti-inflammatory activity in mouse RAW264.7 cells assessed as inhibition of LPS-induced NO production at 10 uM incubated pretreated with compound for 1 hr followed by LPS-induction and measured after 24 hrs by Griess reagent based assay relative to control; assay type: functional; settings: time 25 hrs
[5] = Cytotoxicity against mouse RAW264.7 cells assessed as reduction in cell viability at 20 uM incubated for 24 hrs in presence of LPS by MTT assay; assay type: toxicity, cell-based
[6] = Toxicity in C57BL/6 mouse assessed as body weight loss at 200 mg/kg, po measured for 7 days; assay type: organism-based; settings: in vivo, 168 h, time 7 day

IC50 (RAW264.7 [2]) [µM] | SMILES | Activity (RAW264.7 [1]) | IC50 at 24 h [3] [µM] | inhibition at 10 µM (RAW264.7 [4]) [%] | IC50 at 24 h [5] [µM] | Activity [6]
 | COc1cc(/C=C/c2ccc(OCC3CCCC3)cc2)c(-c2cnn[nH]2)c(OC)c1 | Non-Toxic |  |  |  | 
6.18 | C=CCCCOc1ccc(/C=C/c2cc(OC)cc(OC)c2-c2cnn[nH]2)cc1 | Non-Toxic | > 50 | 62.2 | > 50 | 
10.4 | C=CCCOc1ccc(/C=C/c2cc(OC)cc(OC)c2-c2cnnn2C(=O)NCCCC)cc1 |  | > 50 | 50.6 | > 50 | 
 | COc1cc(/C=C/c2ccc(OCc3ccc(C)cc3)cc2)c(-c2cnn[nH]2)c(OC)c1 | Non-Toxic |  |  |  | 
8 | C=CCOc1ccc(/C=C/c2cc(OC)cc(OC)c2-c2cnnn2C(=O)NC(C)C)cc1 |  | > 50 | 75 | > 50 | 
12.3 | C=CCCCOc1ccc(/C=C/c2cc(OC)cc(OC)c2-c2cnnn2C(=O)NCC)cc1 |  | > 50 | 49.6 | > 50 | 
6.2 | C=C(C)COc1ccc(/C=C/c2cc(OC)cc(OC)c2-c2cnnn2C(=O)NCCC)cc1 |  | > 50 | 77.5 | > 50 | 
 | COc1cc(/C=C/c2ccc(OCc3ccc(Br)cc3)cc2)c(-c2cnn[nH]2)c(OC)c1 | Non-Toxic |  |  |  | 
6.5 | C=CCCCOc1ccc(/C=C/c2cc(OC)cc(OC)c2-c2cnnn2C(=O)NCCc2ccccc2)cc1 |  | > 50 | 67.8 | > 50 | 
 | CCCCOc1ccc(/C=C/c2cc(OC)cc(OC)c2-c2cnn[nH]2)cc1 | Non-Toxic |  |  |  | 
 | COc1cc(/C=C/c2ccc(OCc3cc(F)cc(F)c3)cc2)c(-c2cnn[nH]2)c(OC)c1 | Non-Toxic |  |  |  | 
 | COc1cc(/C=C/c2ccc(OC(=O)N(C)C)cc2)c(-c2cnn[nH]2)c(OC)c1 | Non-Toxic |  |  |  | 
 | COc1cc(/C=C/c2ccc(OCCc3ccccc3)cc2)c(-c2cnn[nH]2)c(OC)c1 | Non-Toxic |  |  |  | 
 | O=C(O)c1cc(/N=N/c2ccc(S(=O)(=O)Nc3ccccn3)cc2)ccc1O [SULFASALAZINE] |  |  |  |  | Non-Toxic
12.8 | C=C(C)COc1ccc(/C=C/c2cc(OC)cc(OC)c2-c2cnnn2C(=O)NCCCC)cc1 |  | > 50 | 54.6 | > 50 | 
8.66 | C=CCCCOc1ccc(/C=C/c2cc(OC)cc(OC)c2-c2cnnn2C(=O)NCCCC)cc1 |  | > 50 | 60 | > 50 | 
 | COCCCCOc1ccc(/C=C/c2cc(OC)cc(OC)c2-c2cnn[nH]2)cc1 | Non-Toxic |  |  |  | 
14.9 | C=C(C)COc1ccc(/C=C/c2cc(OC)cc(OC)c2-c2cnnn2C(=O)NCCc2ccccc2)cc1 |  | > 50 | 42.6 | > 50 | 
14.4 | C=CCCOc1ccc(/C=C/c2cc(OC)cc(OC)c2-c2cnn[nH]2)cc1 | Non-Toxic | > 50 | 46.9 | > 50 | 
14 | C=CCOc1ccc(/C=C/c2cc(OC)cc(OC)c2-c2cnnn2C(=O)NCCc2ccccc2)cc1 |  | > 50 | 45.3 | > 50 | 
13.4 | C=CCCOc1ccc(/C=C/c2cc(OC)cc(OC)c2-c2cnnn2C(=O)NCC)cc1 |  | > 50 | 46.3 | > 50 | 

IC50 (RAW264.7 [2]) [µM] | SMILES | Activity (RAW264.7 [1]) | IC50 at 24 h [3] [µM] | inhibition at 10 µM (RAW264.7 [4]) [%] | IC50 at 24 h [5] [µM] | Activity [6]
1.4 | C=CCCOc1ccc(/C=C/c2cc(OC)cc(OC)c2-c2cnnn2C(=O)NCCCl)cc1 |  | > 50 | 96.9 | > 50 | 
10.8 | C=CCOc1ccc(/C=C/c2cc(OC)cc(OC)c2-c2cnn[nH]2)cc1 | Non-Toxic | > 50 | 53.7 | > 50 | 
11.7 | C=CCOc1ccc(/C=C/c2cc(OC)cc(OC)c2-c2cnnn2C(=O)NCCCC)cc1 |  | > 50 | 50 | > 50 | 
6.2 | C=CCCCOc1ccc(/C=C/c2cc(OC)cc(OC)c2-c2cnnn2C(=O)NCCC)cc1 |  | > 50 | 55.5 | > 50 | 
9.46 | C=CCCOc1ccc(/C=C/c2cc(OC)cc(OC)c2-c2cnnn2C(=O)NCCc2ccccc2)cc1 |  | > 50 | 64.6 | > 50 | 
 | COc1ccc(/C=C/c2cc(OC)cc(OC)c2-c2cnn[nH]2)cc1 | Non-Toxic |  |  |  | 
 | COc1cc(/C=C/c2ccc(OCc3ccc(OC(F)(F)F)cc3)cc2)c(-c2cnn[nH]2)c(OC)c1 | Non-Toxic |  |  |  | 
7.91 | C=CCCOc1ccc(/C=C/c2cc(OC)cc(OC)c2-c2cnnn2C(=O)NC(C)C)cc1 |  | > 50 | 61.3 | > 50 | 
 | CCOCCOc1ccc(/C=C/c2cc(OC)cc(OC)c2-c2cnn[nH]2)cc1 | Non-Toxic |  |  |  | 
2 | C=CCCCOc1ccc(/C=C/c2cc(OC)cc(OC)c2-c2cnnn2C(=O)NCCCl)cc1 |  | > 50 | 85.9 | > 50 | 
 | CCOc1ccc(/C=C/c2cc(OC)cc(OC)c2-c2cnn[nH]2)cc1 | Non-Toxic |  |  |  | 
 | COc1cc(/C=C/c2ccc(OCC3CC3)cc2)c(-c2cnn[nH]2)c(OC)c1 | Non-Toxic |  |  |  | 
 | CCOC(=O)COc1ccc(/C=C/c2cc(OC)cc(OC)c2-c2cnn[nH]2)cc1 | Non-Toxic |  |  |  | 
16 | C=C(C)COc1ccc(/C=C/c2cc(OC)cc(OC)c2-c2cnnn2C(=O)NC(C)C)cc1 |  | > 50 | 48.2 | > 50 | 
15.2 | C=C(C)COc1ccc(/C=C/c2cc(OC)cc(OC)c2-c2cnnn2C(=O)NCC)cc1 |  | > 50 | 43.6 | > 50 | 
3.15 | C=CCCOc1ccc(/C=C/c2cc(OC)cc(OC)c2-c2cnnn2C(=O)NCCC)cc1 |  | > 50 | 72.7 | > 50 | 
8.16 | C=CCOc1ccc(/C=C/c2cc(OC)cc(OC)c2-c2cnnn2C(=O)NCC)cc1 |  | > 50 | 67.3 | > 50 | 
2.6 | C=CCOc1ccc(/C=C/c2cc(OC)cc(OC)c2-c2cnnn2C(=O)NCCC)cc1 |  | > 50 | 81.1 | > 50 | 
9.83 | C=CCCCOc1ccc(/C=C/c2cc(OC)cc(OC)c2-c2cnnn2C(=O)NC(C)C)cc1 |  | > 50 | 53.4 | > 50 | 
7.15 | C=C(C)COc1ccc(/C=C/c2cc(OC)cc(OC)c2-c2cnn[nH]2)cc1 | Non-Toxic | > 50 | 74.2 | > 50 | 
